The structures appear in SMILES notation. Active and inactive are the calls of the source.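 The calls were made as follows: active = cytostatic effect above 60% on a scale from DMSO controls to rapamycin controls, holding yeast in G1/G0 phase; inactive = the rest.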

The subject of the test is S. cerevisiae BY4741 DNA content flow cytometry, cell cycle. In words: S. cerevisiae cell cycle DNA content profile – flow cytometry (AID 504936).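 As to all read-outs here: yeast exposed to compound for three five or seven days before fixation.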 Particulars: at 10 µM; for G1/G0 population: stronger effect = higher value; for G2 population: measured here: G2 phase fraction, stronger effect = lower value; for apoptotic population: measured here: apoptotic fraction. (Flow cytometry measures light scatter and fluorescence of single cells or particles in a stream.)

In the case of `O=C(/C=C/c1ccccc1)NC(=S)NNC(=O)Cc1cccs1`, the G1/G0 population was 80.1%, the G2 population was determined as 3.91% and the apoptotic population was found to be 12.7%.

On to `CC(C)OC(=O)c1ccc2nc3ccccc3nc2c1`, for which the G1/G0 population is 78.1% (inactive), the G2 population amounted to 12.4% and the apoptotic population came out at 7.62%.

`Cn1c(=O)[nH]c2nncnc2c1=O`: the G1/G0 population is 73.1% (inactive), the G2 population is 12% and the apoptotic population stood at 12.7%.

As for `COc1ccc2nc3ccccc3nc2c1N`, the G1/G0 population is 56.9% (inactive), the G2 population was found to be 10.2% and the apoptotic population amounted to 29.3%.

For `O=c1[nH]c(O)c(C=Nc2ccc(F)c(Cl)c2)c(=O)[nH]1`, the G1/G0 population was 78.7% (inactive), the G2 population came out at 12.7% and the apoptotic population was 7.01%.

Take `Cc1cc2nc3ccc(N(C)C)cc3nc2cc1N`: the G1/G0 population was 67.3% (inactive), the G2 population worked out at 5.62% and the apoptotic population stood at 20.3%.

For `CC(C)(C)n1nc(-c2ccc(F)cc2)c2c(N)ncnc21`, the G1/G0 population was 70.5% (inactive), the G2 population was found to be 3.33% and the apoptotic population was determined as 14.9%.

For the compound `COc1cccc2nc3cc(C)c(C)cc3nc12`, the G1/G0 population is 64.8% (inactive), the G2 population amounted to 11% and the apoptotic population is 21.7%.

In the case of `CC(C)(C)Nc1ncnc2c1cnn2-c1ccccc1`, the G1/G0 population is 62.9% (inactive), the G2 population came out at 10.3% and the apoptotic population turned out to be 25%.

Regarding `CCn1c2ccccc2c2n[nH]c(=S)nc21`, the G1/G0 population is 80% (inactive), the G2 population came to 11.1% and the apoptotic population stood at 6.8%.

As for `O=C(Nc1ccc2nc3ccccc3nc2c1)c1ccc(Br)cc1`, the G1/G0 population was 77.7% (inactive), the G2 population worked out at 12.5% and the apoptotic population came to 8.37%.

Regarding `C=CCOn1c(=O)c(-c2cccs2)[n+]([O-])c2ccccc21`, the G1/G0 population was 73.2% (inactive), the G2 population worked out at 13.9% and the apoptotic population worked out at 11.3%.

Consider `CCN(CC)C(=O)c1cccc2nc3ccccc3nc12`, for which the G1/G0 population was 42.7% (inactive), the G2 population was found to be 8.88% and the apoptotic population is 46.6%.

With `N#CC(c1nc2ccccc2nc1N1CCCC1)S(=O)(=O)c1ccccc1` (centres undefined), the G1/G0 population was 75.8% (inactive), the G2 population was 11.9% and the apoptotic population is 9.82%.

For the compound `COc1ccc2nc3ccccc3nc2c1NC(=O)c1ccccc1Cl`, the G1/G0 population is 79.9% (inactive), the G2 population is 12.2% and the apoptotic population turned out to be 6.11%.

Consider `c1ccc2[nH]c3cc4ncnc4cc3nc2c1`, for which the G1/G0 population is 58.6% (inactive), the G2 population is 8.26% and the apoptotic population is 30.4%.

In the case of `CCN(CC)C(=O)CSc1nnc(-c2cccc(OC)c2)o1`, the G1/G0 population was 70.5% (inactive), the G2 population is 12.1% and the apoptotic population turned out to be 15.5%.

`C=CCSc1ccc(-c2ccc([N+](=O)[O-])cc2)o1`: the G1/G0 population was 65.8% (inactive), the G2 population came to 10.1% and the apoptotic population came out at 21.7%.

Consider `CNc1ccc2nc3ccccc3[n+](C)c2c1`, for which the G1/G0 population was 52.8% (inactive), the G2 population stood at 8.35% and the apoptotic population was found to be 36.6%.

Take `CC(C)CSc1nnc2c3ccccc3n(C)c2n1`: the G1/G0 population was 75% (inactive), the G2 population is 12% and the apoptotic population stood at 11.2%.

On to `Cc1cc(C)cc(NC(=O)CN2CCN(c3ccccn3)CC2)c1`, for which the G1/G0 population was 73.5% (inactive), the G2 population is 12.4% and the apoptotic population was determined as 12.2%.

For `COc1ccc2nc3ccccc3[n+]([O-])c2c1`, the G1/G0 population was 69.4% (inactive), the G2 population amounted to 13.5% and the apoptotic population came out at 15%.

Regarding `CC(C)OC(=O)CSc1nnc(-c2ccc(Cl)cc2Cl)o1`, the G1/G0 population was 79.6% (inactive), the G2 population worked out at 12.9% and the apoptotic population was found to be 6.08%.

Regarding `Cc1cc(C)c2[nH]c3nc(SCC(=O)O)nnc3c2c1`, the G1/G0 population is 79.8% (inactive), the G2 population stood at 10.9% and the apoptotic population is 7.85%.

On to `Oc1cccc2nc3ccccc3nc12`, for which the G1/G0 population was 43% (inactive), the G2 population was 9.27% and the apoptotic population was 44%.

Regarding `COc1ccc2cc(C3CC(c4ccco4)=NN3S(=O)(=O)c3ccccc3)c(Cl)nc2c1` (centres undefined), the G1/G0 population was 79% (inactive), the G2 population worked out at 12.7% and the apoptotic population stood at 6.88%.

As for `O=C(OCc1c(F)cccc1Cl)c1cnc2ccccc2n1`, the G1/G0 population is 73.8% (inactive), the G2 population is 13.8% and the apoptotic population was determined as 10.5%.

Regarding `O=C(CN1CCN(c2ccccn2)CC1)Nc1ccccc1F`, the G1/G0 population was 74% (inactive), the G2 population was 12.1% and the apoptotic population was 12%.

On to `FC(F)(F)c1nc2cc3nc4ccccc4[nH]c3cc2n1`, for which the G1/G0 population is 71.5% (inactive), the G2 population worked out at 10.6% and the apoptotic population was 12.3%.

In the case of `[O-][n+]1c2ccccc2[n+]([O-])c2cc(O)ccc21`, the G1/G0 population was 48.4% (inactive), the G2 population came to 8.17% and the apoptotic population stood at 37.1%.

On to `CC(=O)Nc1ccc2nc3ccccc3nc2c1`, for which the G1/G0 population is 72.9% (inactive), the G2 population was found to be 11.9% and the apoptotic population worked out at 12.6%.

As for `COc1ccc2c(c1)c1nnc(SC)nc1n2C`, the G1/G0 population is 58.9% (inactive), the G2 population came out at 11.7% and the apoptotic population was 27.7%.

For `CSc1nnc(-c2ccc([N+](=O)[O-])cc2)o1`, the G1/G0 population is 79.2% (inactive), the G2 population was 10.8% and the apoptotic population amounted to 8.39%.

Consider `O=C(/C=C/c1cccs1)NC(=S)NNC(=O)Cc1cccs1`, for which the G1/G0 population was 73% (inactive), the G2 population was found to be 11.1% and the apoptotic population is 14%.

With `CCN(CC)C(=O)c1ccc2nc3ccccc3nc2c1`, the G1/G0 population was 78.8% (inactive), the G2 population was determined as 11.3% and the apoptotic population was found to be 8.05%.

Regarding `Nc1cc2nc3ccccc3nc2cc1N`, the G1/G0 population is 79% (inactive), the G2 population turned out to be 9.84% and the apoptotic population amounted to 9%.

As for `N#CCc1nn(-c2ccccc2)c2ncnc(N)c12`, the G1/G0 population is 78.8% (inactive), the G2 population was 10.6% and the apoptotic population came out at 8.22%.

For `COc1ccc2nc3ccccc3nc2c1`, the G1/G0 population is 65.9% (inactive), the G2 population is 12.7% and the apoptotic population was 18.8%.

With `C#CCSc1ccc(-c2ccc([N+](=O)[O-])cc2)o1`, the G1/G0 population is 79.6% (inactive), the G2 population was found to be 11% and the apoptotic population was 8.02%.

`C[C@@]12C(=O)OC(=O)[C@]1(C)C1CCC2O1`: the G1/G0 population is 61.6% (inactive), the G2 population was found to be 9.56% and the apoptotic population is 24.9%.

With `Cc1ccccc1NC(=O)c1cccc2nc3ccccc3nc12`, the G1/G0 population is 72.9% (inactive), the G2 population was 12.2% and the apoptotic population was found to be 13.2%.

As to `CCc1nc(NC(C)(C)C)c2cnn(-c3ccccc3)c2n1`, the G1/G0 population is 75.3% (inactive), the G2 population is 13.1% and the apoptotic population is 9.99%.

With `CCC(=Nc1ccccc1O)C1=C(O)CC(c2ccccc2)CC1=O` (centres undefined), the G1/G0 population is 74.7% (inactive), the G2 population turned out to be 12.1% and the apoptotic population came to 12%.

For `c1ccc2nc3ccccc3nc2c1`, the G1/G0 population is 71.8% (inactive), the G2 population turned out to be 13.2% and the apoptotic population was 12.3%.

With `CC(C)(C)n1nc(-c2ccc(Cl)cc2)c2c(N)ncnc21`, the G1/G0 population is 70.8% (inactive), the G2 population worked out at 0.23% and the apoptotic population was determined as 12.6%.

Turning to `O=C(c1cccc2nc3ccccc3nc12)N1CCOCC1`, the G1/G0 population is 76.5% (inactive), the G2 population turned out to be 12.1% and the apoptotic population came out at 9.75%.

For `C[n+]1c2ccccc2nc2ccc(NCCO)cc21`, the G1/G0 population is 77.6% (inactive), the G2 population was 7.26% and the apoptotic population stood at 8.98%.

Consider `OCC[n+]1c2ccccc2nc2ccc(N3CCOCC3)cc21`, for which the G1/G0 population was 74.9% (inactive), the G2 population was determined as 12.4% and the apoptotic population stood at 11%.

Regarding `CCCCCNC(=O)C(=O)C1C(=O)Nc2ccccc21` (centres undefined), the G1/G0 population was 71.4% (inactive), the G2 population was determined as 6.62% and the apoptotic population is 20%.

Turning to `Cc1ccc(-c2nn(C(C)(C)C)c3ncnc(N)c23)cc1`, the G1/G0 population was 70.3% (inactive), the G2 population was found to be 9.27% and the apoptotic population is 16.3%.

With `O=C(O)c1cnc2ccccc2n1`, the G1/G0 population is 78.8% (inactive), the G2 population was 12.5% and the apoptotic population amounted to 7.02%.

For `O=C(Nc1cccc(Cl)c1)Nc1ccc2nccnc2c1`, the G1/G0 population was 77.4% (inactive), the G2 population came to 12% and the apoptotic population was found to be 8.93%.

`O=C1c2c(O)ccc(O)c2C(=O)c2c(NCCNCCO)ccc(NCCNCCO)c21`: the G1/G0 population is 0.072% (inactive), the G2 population was 0% and the apoptotic population stood at 99.9%.
